Here are results for two compounds from US20250367299A1, “GAMMA-HYDRO[…] AND PROCESSES FOR MAKING AND USING THEM” (Zevra Therapeutics, Inc., priority 2022, published 2025).

Molecules are shown by their SMILES.

This series is described as follows: Pharmacokinetics of GHB in plasma after oral gavage of GHB delivering compounds, with relative oral bioavailability vs sodium oxybate. The conditions noted are these: vehicle water; for % AUC0-4 hr, relative oral bioavailability vs study comparator (sodium oxybate) / % Cmax, relative oral bioavailability vs study comparator (sodium oxybate): mean conjugate/mean comparator.

[1] abbreviates: dose molar equivalent of 100 mg/kg NaGHB.
Setting [2] is: dose equivalent to 80 mg/kg NaGHB.

For `O=C1CCCO1` [GBL], under setting [1], the “% AUC0-4 hr, relative oral bioavailability vs study comparator (sodium oxybate)” value came to 27% and the “% Cmax, relative oral bioavailability vs study comparator (sodium oxybate)” value was found to be 70%. Besides, the “Tmax of GHB in plasma” value (oral gavage, dose molar equivalent of 100 mg/kg NaGHB) stood at 15 min.
Turning to `CCOC(=O)OCCCC(=O)O` [O-(ethoxycarbonyl)-GHB, O-(Ethoxycarbonyl)-GHB], under setting [2], the “% AUC0-4 hr, relative oral bioavailability vs study comparator (sodium oxybate)” value amounted to 54% and the “% Cmax, relative oral bioavailability vs study comparator (sodium oxybate)” value worked out at 51%.
